Values of other authors, collected in paper PMC11647681, “Discovery of Non-Covalent Inhibitors for SARS-CoV-2 PLpro: Integrating Virtual Screening, Synthesis, and Experimental Validation” (ACS Medicinal Chemistry Letters, 2024).

Test system: SARS-CoV-2, and its variants
Set-up: method as in PMID 38547259
Details: cited from earlier work

## CCn1ccc(-c2cc(-c3cnn(C)c3)cc([C@@H](C)NC(=O)c3cc(OCCN(C)C)ccc3C)c2)n1 [Jun12682]
  activity against SARS-CoV-2, and its variants, in vivo: confirmed
